Data: article PMC5571287 (Antimicrobial Agents and Chemotherapy, 2017)
Where two headings read alike, the source gives them in different places.

Columns and labels:
[1] = test system: RSVB 1276; assay: microbe, parasite or virus in culture; type: cell-based; conditions: human respiratory syncytial virus, RSVB 1276, clinical, 3 parameter curve fit
[2] = test system: Influenza virus H1N1 (A/PR/34 strain); assay: microbe, parasite or virus in culture; type: cell-based; conditions: Influenza virus H1N1, A549
[3] = test system: RSVA 1211; assay: microbe, parasite or virus in culture; type: cell-based; conditions: human respiratory syncytial virus, RSVA 1211, clinical
[4] = Antiviral panel: cytotoxicity; type: cell-based; conditions: human, Huh-7 cells with HCV GT1b replicon; Huh-7, GT1b replicon
[5] = test system: PC786 escape mutant (Y1631H) of RSV A2; type: cell-based, respiratory syncytial virus; conditions: CPE
[6] = test system: RSV A2; assay: Time-of-addition assay and MOI dependency, CPE (methylene blue) in HEp-2; type: cell-based; conditions: human respiratory syncytial virus
[7] = test system: RSV B 9320; conditions: human respiratory syncytial virus
[8] = test system: RSVA 1211; conditions: human respiratory syncytial virus
[9] = test system: RSVB 1262; assay: microbe, parasite or virus in culture; type: cell-based; conditions: human respiratory syncytial virus, RSVB 1262, clinical
[10] = test system: Rhinovirus 16; assay: microbe, parasite or virus in culture; type: cell-based, human rhinovirus; conditions: Rhinovirus 16, HeLa
[11] = test system: RSVA 492; conditions: human respiratory syncytial virus
[12] = test system: RSVA 689; assay: microbe, parasite or virus in culture; type: cell-based; conditions: human respiratory syncytial virus, RSVA 689, clinical
[13] = target: minigenome construct comprising the L protein, M2-1, N, and P of RSV A2 (Human respiratory syncytial virus A, UniProt P28887); assay: cell-based
[14] = test system: RSV A Long; assay: RSV A Long-infected cotton rats, lung homogenate viral load and transcripts; type: in vivo
[15] = test system: RSV A2; assay: CPE assay, RSV A2 in HEp-2 cells (resazurin); type: cell-based, respiratory syncytial virus; conditions: human respiratory syncytial virus, HEp-2
[16] = test system: Wild type RSVA2 (vehicle control virus); assay: CPE assay, vehicle control (wild type) RSV A2 virus; conditions: human respiratory syncytial virus
[17] = test system: known RSV A clinical isolates; assay: CPE assays, known RSV A clinical isolates in HEp-2; type: cell-based; conditions: human respiratory syncytial virus, read-out: IC50, range over known RSV A clinical isolates
Procedure: For RSV A 2001/3-12, 1998/3-2, and USU⃥v1225, CPE was induced in HEp-2 cells for 7 days and the plates were then stained with neutral red dye for approximately 2 h. The intracellular incorporated dye was extracted in 50:50 Sorensen citrate buffer-ethanol and the absorbance read on a spectrophotometer. The optical density (OD) of test wells was converted to percentage of cell and virus controls. […] The virus inocula were ∼63 50% cell culture infectious doses (CCID50) per well for 2001/3-12, ∼40 CCID50/well for 1998/3-2, and ∼32 CCID50/well for USU\v1225. This assay was conducted in Utah State University (Logan, UT).
For known clinical strains (RSV A 1997/12-35, 2001/2-20, 200/3-4, and Memphis 37), a 384-well-format resazurin-based CPE assay was conducted.

[18] = HEp-2, read-out: RSV titre in supernatant IC50 (0.3 Log PFUe reduction) (converted)
[19] = HEp-2, read-out: RSV titre in supernatant IC90 (1 Log PFUe reduction) (converted)

minigenome construct comprising the L protein, M2-1, N, and P of RSV A2, sequence (P28887 whole entry): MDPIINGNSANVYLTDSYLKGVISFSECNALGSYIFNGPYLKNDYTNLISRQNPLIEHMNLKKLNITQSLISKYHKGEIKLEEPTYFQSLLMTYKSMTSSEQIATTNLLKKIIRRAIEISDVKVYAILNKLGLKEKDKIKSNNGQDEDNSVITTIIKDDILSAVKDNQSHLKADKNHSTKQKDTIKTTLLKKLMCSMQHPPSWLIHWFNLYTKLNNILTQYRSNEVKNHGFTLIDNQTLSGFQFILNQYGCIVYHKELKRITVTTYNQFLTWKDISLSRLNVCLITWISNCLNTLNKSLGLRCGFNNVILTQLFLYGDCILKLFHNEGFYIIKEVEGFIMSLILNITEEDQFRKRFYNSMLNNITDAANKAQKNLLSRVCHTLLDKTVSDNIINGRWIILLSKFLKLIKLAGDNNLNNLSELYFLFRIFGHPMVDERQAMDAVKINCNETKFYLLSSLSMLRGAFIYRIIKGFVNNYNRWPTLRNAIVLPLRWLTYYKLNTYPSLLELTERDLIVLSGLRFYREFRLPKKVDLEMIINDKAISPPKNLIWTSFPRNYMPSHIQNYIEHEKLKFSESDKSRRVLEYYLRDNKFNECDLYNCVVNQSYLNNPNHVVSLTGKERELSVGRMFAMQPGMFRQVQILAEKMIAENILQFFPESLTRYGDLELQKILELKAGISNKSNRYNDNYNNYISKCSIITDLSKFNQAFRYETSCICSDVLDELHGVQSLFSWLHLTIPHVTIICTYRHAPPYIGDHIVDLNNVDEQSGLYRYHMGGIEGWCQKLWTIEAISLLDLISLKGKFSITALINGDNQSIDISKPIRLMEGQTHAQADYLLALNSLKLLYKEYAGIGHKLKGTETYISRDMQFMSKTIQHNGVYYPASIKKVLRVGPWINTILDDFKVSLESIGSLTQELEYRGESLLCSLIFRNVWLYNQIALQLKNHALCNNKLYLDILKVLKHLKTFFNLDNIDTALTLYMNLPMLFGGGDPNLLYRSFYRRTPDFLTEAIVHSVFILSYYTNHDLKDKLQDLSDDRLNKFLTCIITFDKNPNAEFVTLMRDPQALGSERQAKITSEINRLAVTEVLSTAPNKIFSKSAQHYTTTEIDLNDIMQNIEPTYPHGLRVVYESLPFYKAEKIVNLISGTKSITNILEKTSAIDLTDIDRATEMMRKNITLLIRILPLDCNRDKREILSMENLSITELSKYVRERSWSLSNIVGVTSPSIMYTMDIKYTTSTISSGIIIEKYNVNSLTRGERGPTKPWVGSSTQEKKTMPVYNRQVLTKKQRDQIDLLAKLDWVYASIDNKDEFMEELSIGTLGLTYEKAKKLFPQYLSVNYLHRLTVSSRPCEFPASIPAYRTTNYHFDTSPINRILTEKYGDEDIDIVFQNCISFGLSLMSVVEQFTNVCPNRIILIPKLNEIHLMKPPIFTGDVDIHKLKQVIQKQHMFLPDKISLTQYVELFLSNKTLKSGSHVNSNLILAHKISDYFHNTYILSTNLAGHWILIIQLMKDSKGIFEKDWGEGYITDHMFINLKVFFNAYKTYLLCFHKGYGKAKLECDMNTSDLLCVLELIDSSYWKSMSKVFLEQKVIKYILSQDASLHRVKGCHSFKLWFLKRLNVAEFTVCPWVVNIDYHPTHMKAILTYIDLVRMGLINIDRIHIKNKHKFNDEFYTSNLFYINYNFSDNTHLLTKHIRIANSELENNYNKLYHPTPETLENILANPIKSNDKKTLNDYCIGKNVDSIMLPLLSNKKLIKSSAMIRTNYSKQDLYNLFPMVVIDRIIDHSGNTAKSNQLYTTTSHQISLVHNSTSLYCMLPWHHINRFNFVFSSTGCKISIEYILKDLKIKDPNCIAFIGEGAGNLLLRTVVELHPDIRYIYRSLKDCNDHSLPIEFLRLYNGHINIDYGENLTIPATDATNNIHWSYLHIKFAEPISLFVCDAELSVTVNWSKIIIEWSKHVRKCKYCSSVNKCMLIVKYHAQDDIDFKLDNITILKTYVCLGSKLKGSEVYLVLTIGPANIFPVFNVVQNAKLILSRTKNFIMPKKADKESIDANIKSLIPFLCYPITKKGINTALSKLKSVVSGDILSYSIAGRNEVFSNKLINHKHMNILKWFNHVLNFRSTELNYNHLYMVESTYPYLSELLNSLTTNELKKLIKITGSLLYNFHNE
minigenome construct comprising the L protein, M2-1, N, and P of RSV A2, sequence (P03421 whole entry, further chain): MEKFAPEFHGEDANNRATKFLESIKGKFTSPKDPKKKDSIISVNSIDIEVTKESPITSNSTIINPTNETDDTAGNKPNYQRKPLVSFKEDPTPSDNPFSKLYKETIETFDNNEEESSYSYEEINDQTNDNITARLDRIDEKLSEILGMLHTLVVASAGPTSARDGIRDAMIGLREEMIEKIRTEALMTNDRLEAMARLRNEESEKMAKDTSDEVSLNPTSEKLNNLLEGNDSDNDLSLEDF

With `Cc1cnc(N2CC3(CCOCC3)C2)c(C(=O)Nc2ccc(C(=O)N3CCc4cc(C(=O)Nc5c(C)cccc5F)sc4-c4ccccc43)cc2)c1` [PC786, N-(2-fluoro-6-methylphenyl)-6-(4-(5-methyl-2-(7-oxa-2-azaspiro[3.5]nonan-2-yl)nicotinamido)benzoyl)-5,6-dihydro-4H-benzo[b]thieno[2,3-d]azepine-2-carboxamide] the IC50 ([1]; read-out: CPE IC50) was 50.6 nM, the IC90 ([1]; read-out: CPE IC90) was 821 nM and the “IC90 or IC95” value [2] was greater than 14000 nM. For the same compound, the IC50 ([2]; unidentified influenza virus) was greater than 14000 nM, the IC50 ([3]; read-out: CPE IC50) was less than 0.09 nM and the IC90 ([3]; read-out: CPE IC90) was 1.96 nM. It also gave a CC50 at 3 days [4] greater than 14000 nM, an IC50 ([5]; read-out: PC786 escape mutant IC50, N=3, after 6th passage) of 17.9 nM and an IC90 ([5]; read-out: PC786 escape mutant IC90, N=3) of 1120 nM. For the same compound, the IC50 ([6]; HEp-2, 24 h, MOI 0.02, n = 3, read-out: IC50 at treatment time 24 h postinoculation) was 0.85 nM, the IC50 ([6]; HEp-2, 24 h, MOI 0.1, n = 3, read-out: IC50 at treatment time 24 h postinoculation) was 1.09 nM and the IC50 ([6]; HEp-2, 24 h, MOI 1.0, n = 3, read-out: IC50 at treatment time 24 h postinoculation) was 0.5 nM. The IC50 ([6]; HEp-2, 48 h, read-out: IC50 at treatment time 48 h postinoculation, MOI 0.02, n = 3) was 0.94 nM, the IC50 ([6]; HEp-2, 48 h, read-out: IC50 at treatment time 48 h postinoculation, MOI 0.1, n = 3) was 2.36 nM and the IC50 ([6]; HEp-2, 48 h, read-out: IC50 at treatment time 48 h postinoculation, MOI 1.0, n = 3) was 0.46 nM. For the same compound, the IC50 ([6]; HEp-2, 72 h, MOI 0.02, n = 3, read-out: IC50 at treatment time 72 h postinoculation) was greater than 93.4 nM, the IC50 ([6]; HEp-2, 72 h, MOI 0.1, n = 3, read-out: IC50 at treatment time 72 h postinoculation) was greater than 140 nM and the IC50 ([6]; HEp-2, 72 h, MOI 1.0, n = 3, read-out: IC50 at treatment time 72 h postinoculation) was greater than 140 nM. The IC50 ([6]; HEp-2, MOI 0.02, n = 3, CPE at 144 h, read-out: IC50 at treatment time 0 h postinoculation) was 0.6 nM, the IC50 ([6]; HEp-2, MOI 0.1, n = 3, CPE at 144 h, read-out: IC50 at treatment time 0 h postinoculation) was 0.99 nM and the IC50 ([6]; HEp-2, MOI 1.0, n = 3, CPE at 144 h, read-out: IC50 at treatment time 0 h postinoculation) was 0.44 nM. For the same compound, the IC50 ([7]; HEp-2, read-out: PCR IC50 (0.3 Log PFUe reduction) (converted)) was 30.3 nM, the IC90 ([7]; HEp-2, read-out: PCR IC90 (1 Log PFUe reduction) (converted)) was 31 nM and the IC50 [8, 18] was less than 0.09 nM. The IC90 [8, 19] was 1.05 nM, the IC50 ([9]; read-out: CPE IC50) was 14.5 nM and the IC90 ([9]; read-out: CPE IC90) was 692 nM. The IC50 ([10]; Enterovirus) was greater than 14000 nM, the “IC90 or IC95” value [10] was greater than 14000 nM and the IC50 [11, 18] was 0.43 nM. It also gave an IC90 [11, 19] of 0.5 nM, an IC50 ([12]; read-out: CPE IC50) of 0.5 nM and an IC90 ([12]; read-out: CPE IC90) of 0.6 nM. The inhibition at 0.14 µM ([13]; HEp-2, at 140 nM, read-out: maximum inhibition achieved) was 100%, the IC90 ([13]; luciferase, HEp-2, wild-type L protein) was 1.54 nM and the “IP-10 transcripts in lung homogenates” value ([14]; i.n. 0.33-10 mg/ml, day 4) was “dose-dependent inhibition”. The “RANTES transcripts in lung homogenates” value ([14]; i.n. 0.33-10 mg/ml, day 4) was “dose-dependent inhibition”, the “RSV NS-1 gene transcripts in lung homogenates” value ([14]; i.n. 0.33-10 mg/ml, day 4) was “dose-dependent inhibition” and the “viral load in lung homogenates on day 4” value ([14]; i.n. once daily days 0 to 3, doses of more than […] (165 μg/cotton rat)) was “lower than the detection limit”. It also gave an IC50 ([15]; RSV A2, laboratory, low-passage isolate study, read-out: CPE assay IC50) of 0.96 nM, an IC90 ([15]; RSV A2, laboratory, low-passage isolate study, read-out: CPE assay IC90) of 1.82 nM and an IC50 ([15]; read-out: RSV A2 IC50) of 0.5 ± 0.0014 nM. It also gave an IC90 ([15]; read-out: RSV A2 IC90) of 0.63 ± 0.035 nM, an IC50 ([16]; read-out: Wild type RSVA2 IC50) of 0.027 nM and an IC90 ([16]; read-out: Wild type RSVA2 IC90) of 0.065 nM. For the same compound, the IC50 [17] was 0.14 to 3.2 nM.
